Here are results for 24 compounds from patent US20230399341A1, “7-PHENYL SUBSTITUTED 2-AMINOQUINAZOLINE INHIBITORS OF HPK1” (MERCK SHARP & DOHME LLC, priority 2020, published 2023).

The assay addresses T1, Human HPK1, catalytic domain (Homo sapiens, UniProt Q92918).
T1 sequence (Q92918 1-346): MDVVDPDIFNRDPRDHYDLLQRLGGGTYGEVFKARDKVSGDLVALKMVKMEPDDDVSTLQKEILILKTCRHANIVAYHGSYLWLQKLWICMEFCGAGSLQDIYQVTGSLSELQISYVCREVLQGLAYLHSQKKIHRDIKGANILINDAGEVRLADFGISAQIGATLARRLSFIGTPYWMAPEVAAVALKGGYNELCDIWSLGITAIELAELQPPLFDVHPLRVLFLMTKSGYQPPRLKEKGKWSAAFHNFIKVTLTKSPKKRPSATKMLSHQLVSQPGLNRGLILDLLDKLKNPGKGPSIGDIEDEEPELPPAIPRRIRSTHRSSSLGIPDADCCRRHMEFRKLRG
The experiment in a line: HPK1-SLP76 TR-FRET Assay. Type of assay: biochemical. The note with it: 75 pM HPK1, ATP 10 uM, SLP76 10 nM, 30 min pre-incubation, 60 min reaction. On the technique in general: TR-FRET usually uses a lanthanide donor and a delayed reading to cut background.
Turning to `COc1cc(CS(C)(=O)=O)ccc1Nc1ncc2c(N)c(F)c(-c3cnc4c(c3C)NCCO4)c(Cl)c2n1` (single isomer, unassigned) [Compound 2-101, (+ or −)-8-chloro-6-fluoro-N~2~-{2-methoxy-4-[(methylsulfony])methyl] phenyl}-7-(8-methyl-2,3-dihydro-1H-pyrido[2,3-b][1,4]oxazin-7-yl)quinazoline-2,5-diamine], the midpoint of inhibition, the IC50, lay at 0.121 nM. This lies in the sub-nanomolar range. Consider `COc1cc2c(cc1Nc1ncc3c(N)c(F)c(-c4cnc5c(c4C)NCCO5)c(Cl)c3n1)CN(C(C)C)CC2` (single isomer, unassigned) [Compound 2-105, (+ or −)-8-chloro-6-fluoro-N2-(2-isopropyl-6-methoxy-1,2,3,4-tetrahydroisoquinolin-7-yl)-7-(8-methyl-2,3-dihydro-1H-pyrido[2,3-b][1,4]oxazin-7-yl)quinazoline-2,5-diamine], for which the IC50 (usually the midpoint of a concentration-inhibition curve) amounted to 0.0714 nM. In the case of `Cc1c(-c2c(F)c(N)c3cnc(Nc4ccc5c(c4)CN(C)CC54CC4)nc3c2Cl)cnc2c1NCCO2` (single isomer, unassigned) [Compound 2-108, (+ or −)-8-chloro-6-fluoro-N2-(2′-methyl-2′,3′-dihydro-1′H-spiro[cyclopropane-1,4′-isoquinolin]-7′-yl)-7-(8-methyl-2,3-dihydro-1H-pyrido[2,3-b][1,4]oxazin-7-yl)quinazoline-2,5-diamine] it was 0.0134 nM; in that of `Cc1c(-c2c(F)c(N)c3cnc(Nc4ccc5c(c4)CN(C(C)C)CC5)nc3c2Cl)cnc2c1NCCO2` (single isomer, unassigned) [Compound 2-113, 8-chloro-6-fluoro-N2-(2-isopropyl-1,2,3,4-tetrahydroisoquinolin-7-yl)-7-(8-methyl-2,3-dihydro-1H-pyrido[2,3-b][1,4]oxazin-7-yl)quinazoline-2,5-diamine], 0.0389 nM; in that of `CCS(=O)(=O)Cc1ccc(Nc2ncc3c(N)c(F)c(-c4cnc5c(c4C)NCC(C)O5)cc3n2)c(F)c1` (single isomer, unassigned) [Compound 2-125, (R or S)-7-(3,8-dimethyl-2,3-dihydro-1H-pyrido[2,3-b][1,4]oxazin-7-yl)-N2-(4-((ethylsulfonyl)methyl)-2-fluorophenyl)-6-fluoroquinazoline-2,5-diamine], 0.105 nM. In the case of `Cc1c(-c2cc3nc(Nc4ccc5c(c4)CC(C)(C)N(C)C5)ncc3c(N)c2F)cnc2c1NCCO2` (single isomer, unassigned) [Compound 2-126, 6-fluoro-7-(8-methyl-2,3-dihydro-1H-pyrido[2,3-b][1,4]oxazin-7-yl)-N2-(2,3,3-trimethyl-1,2,3,4-tetrahydroisoquinolin-6-yl)quinazoline-2,5-diamine], the IC50 was 0.0898 nM. In turn, `Cc1c(-c2cc3nc(Nc4cccc5c4CC(C)(C)N(C)C5)ncc3c(N)c2F)cnc2c1NCCO2` (single isomer, unassigned) [Compound 2-127] returned an IC50 of 100 nM.

In turn, `Cc1c(-c2cc3nc(Nc4ccc5c(c4)CN(C)C(C)(C)C5)ncc3c(N)c2F)cnc2c1NCCO2` (single isomer, unassigned) [Compound 2-128, 6-fluoro-7-(8-methyl-2,3-dihydro-1H-pyrido[2,3-b][1,4]oxazin-7-yl)-N2-(2,3,3-trimethyl-1,2,3,4-tetrahydroisoquinolin-7-yl)quinazoline-2,5-diamine] registered an IC50 of 0.0337 nM. In the case of `CCS(=O)(=O)Cc1ccc(Nc2ncc3c(N)c(F)c(-c4cnc5c(c4C)NCC(C)O5)cc3n2)c(F)c1` (single isomer, unassigned) [Compound 2-129, (R or S)-7-(3,8-dimethyl-2,3-dihydro-1H-pyrido[2,3-b][1,4]oxazin-7-yl)-N2-(4-((ethylsulfonyl)methyl)-2-fluorophenyl)-6-fluoroquinazoline-2,5-diamine] it was 0.454 nM.

Consider `Cc1c(-c2c(F)c(N)c3cnc(Nc4ccc(CS(C)(=O)=O)cc4F)nc3c2Cl)cnc2c1NCCO2` (single isomer, unassigned) [Compound 2-131, 8-chloro-6-fluoro-N2-(2-fluoro-4-((methylsulfonyl)methyl)phenyl)-7-(8-methyl-2,3-dihydro-1H-pyrido[2,3-b][1,4]oxazin-7-yl)quinazoline-2,5-diamine], for which the IC50 was 0.126 nM.

Turning to `Cc1c(-c2cc3nc(Nc4ccc5c(c4)CN(C)CC5)ncc3c(N)c2F)cnc2c1NCC(C)O2` (single isomer, unassigned) [Compound 2-141, (R or S)-7-(3,8-dimethyl-2,3-dihydro-1H-pyrido[2,3-b][1,4]oxazin-7-yl)-6-fluoro-N2-(2-methyl-1,2,3,4-tetrahydroisoquinolin-7-yl)quinazoline-2,5-diamine], half-maximal inhibition (IC50) was put at 0.0505 nM. For `Cc1c(-c2cc3nc(Nc4ccc5c(c4)CN(C(C)C)CC5)ncc3c(N)c2F)cnc2c1NCC(C)O2` (single isomer, unassigned) [Compound 2-145, 7-(3,8-dimethyl-2,3-dihydro-1H-pyrido[2,3-b][1,4]oxazin-7-yl)-6-fluoro-N2-(2-isopropyl-1,2,3,4-tetrahydroisoquinolin-7-yl)quinazoline-2,5-diamine] the value was 0.051 nM; for `Cc1c(-c2cc3nc(Nc4ccc(C5CCN(C)C5=O)cc4)ncc3c(N)c2F)cnc2c1NCCO2` (single isomer, unassigned) [Compound 2-146, (R or S)-3-(4-{[5-amino-6-fluoro-7-(8-methyl-2,3-dihydro-1H-pyrido[2,3-b][1,4]oxazin-7-yl)quinazolin-2-ylamino}phenyl)-1-methylpyrrolidin-2-one], 0.0505 nM; for `Cc1c(-c2cc3nc(Nc4ccc(C5CCN(C)C5=O)cc4)ncc3c(N)c2F)cnc2c1NCCO2` (single isomer, unassigned) [Compound 2-147, (R or S)-3-(4-{[5-amino-6-fluoro-7-(8-methyl-2,3-dihydro-1H-pyrido[2,3-b][1,4]oxazin-7-yl)quinazolin-2-yl]amino}phenyl)-1-methylpyrrolidin-2-one], 0.0753 nM.

The compound `Cc1c(-c2c(F)c(N)c3cnc(Nc4ccc(N5CCOC5=O)cc4)nc3c2Cl)cnc2c1NCCO2` (single isomer, unassigned) [Compound 2-156] gave a concentration for half-maximal inhibition (IC50) of 0.235 nM. For `COc1cc2c(cc1Nc1ncc3c(N)c(F)c(-c4cnc5c(c4C)NCCO5)c(Cl)c3n1)CN(C)CC21CC1` (single isomer, unassigned) [Compound 2-163, 8-chloro-6-fluoro-N~2~- (6′-methoxy-2′-methyl-2′,3′-dihydro-1′H-spiro[cyclopropane-1,4′-isoquinolin]-7′-yl)-7-(8-methyl-2,3-dihydro-1H-pyrido[2,3-b][1,4]oxazin-7-yl)quinazoline-2,5-diamine] the value was 0.0588 nM; for `Cc1c(-c2c(F)c(N)c3cnc(Nc4ccc5c(c4)CN(C)CC5)nc3c2Cl)cnc2c1NCCO2` (single isomer, unassigned) [Compound 2-179, (+ or −)-8-chloro-6-fluoro-7-(8-methyl-2,3-dihydro-1H-pyrido[2,3-b][1,4]oxazin-7-yl)-N~2~- (2-methyl-1,2,3,4-tetrahydroisoquinolin-7-yl)quinazoline-2,5-diamine], 2.93 nM. For `Cc1c(-c2c(F)c(N)c3cnc(Nc4ccc5c(c4)CN(C)CC5)nc3c2Cl)cnc2c1NCCO2` (single isomer, unassigned) [Compound 2-180, (+ or −)-8-chloro-6-fluoro-7-(8-methyl-2,3-dihydro-1H-pyrido[2,3-b][1,4]oxazin-7-yl)-N~2~- (2-methyl-1,2,3,4-tetrahydroisoquinolin-7-yl)quinazoline-2,5-diamine] the value was 0.0248 nM; for `CCC1COC(=O)N1c1ccc2cnc(Nc3cc4c(cc3OC)CCN(C)C4)nc2c1` (single isomer, unassigned) [Compound 3-13, (S or R)-4-ethyl-3-{2-[(6-methoxy-2-methyl-1,2,3,4-tetrahydroisoquinolin-7-yl)amino]quinazolin-7-yl}-1,3-oxazolidin-2-one], 1.05 nM; for `CCC1COC(=O)N1c1ccc2cnc(Nc3cc4c(cc3OC)CCN(C)C4)nc2c1` (single isomer, unassigned) [Compound 3-14, (S or R)-4-ethyl-3-{2-[(6-methoxy-2-methyl-1,2,3,4-tetrahydroisoquinolin-7-yl)amino]quinazolin-7-yl}-1,3-oxazolidin-2-one], 24.6 nM. `CCC1COC(=O)N1c1cc(N)c2cnc(Nc3cc4c(cc3OC)CCN(C)C4)nc2c1` (single isomer, unassigned) [Compound 3-15, (S or R)-3-{5-amino-2-[(6-methoxy-2-methyl-1,2,3,4-tetrahydroisoquinolin-7-yl)amino]quinazolin-7-yl}-4-ethyl-1,3-oxazolidin-2-one] registered an IC50 of 3.24 nM. For `CCC1COC(=O)N1c1cc(N)c2cnc(Nc3cc4c(cc3OC)CCN(C)C4)nc2c1` (single isomer, unassigned) [Compound 3-16, (S or R)-3-{5-amino-2-[(6-methoxy-2-methyl-1,2,3,4-tetrahydroisoquinolin-7-yl)amino]quinazolin-7-yl}-4-ethyl-1,3-oxazolidin-2-one] the value was 0.169 nM; for `COc1cc2c(cc1Nc1ncc3ccc(NCC4CC(=O)N(C)C4)cc3n1)CN(C)CC2` (stereo in doubt) [Compound 3-48, (4S)-4-[({2-[(6-methoxy-2-meth-yl-1,2,3,4-tetrahydroisoquinolin-7-yl)amino]quinazolin-7-yl}-amino)methyl]-1-methylpyrrol-idin-2-one], 531 nM; for `COc1cc2c(cc1Nc1ncc3ccc(-c4ccccc4)cc3n1)CN(C)CC2` [Compound 1-1, N-(6-methoxy-2-methyl-1,2,3,4-tetrahydroisoquinolin-7-yl)-7-phenylquinazolin-2-amine], 140 nM.
